Patent US20250304549A1, “HYDROXYAMIDE DERIVATIVE AND USE THEREOF” (SICHUAN HUIYU PHARMACEUTICAL CO., LTD., priority 2022, published 2025)
Structures can show the parent of a compound that is named as a salt.

How the values were obtained:
[1] = molecular target: LSD1 (Homo sapiens (Human), UniProt O60341); test: In vitro enzyme inhibition assay - LSD1 (HTRF); format: biochemical
[2] = molecular target: pan-HDAC; test: In vitro enzyme inhibition assay - HDAC (HDAC-Glo I/II), pan-HDAC; format: biochemical
How it was run: (§1)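 Eight compound concentrations (5-fold steps from a 1 mM DMSO stock) tested against pan-HDAC, HDAC1 and HDAC8 with HDAC-Glo I/II reagents, luminescence read-out. Percent inhibition normalized to no-inhibitor and no-enzyme wells; IC50 derived by four-parameter logistic fit.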

[3] = molecular target: HDAC8 (Homo sapiens (Human), UniProt Q9BY41); test: In vitro enzyme inhibition assay - HDAC (HDAC-Glo I/II), HDAC8; format: biochemical; conditions: read-out: HDAC IC50 (nM) HDAC 8
HDAC8, sequence (Q9BY41 whole entry): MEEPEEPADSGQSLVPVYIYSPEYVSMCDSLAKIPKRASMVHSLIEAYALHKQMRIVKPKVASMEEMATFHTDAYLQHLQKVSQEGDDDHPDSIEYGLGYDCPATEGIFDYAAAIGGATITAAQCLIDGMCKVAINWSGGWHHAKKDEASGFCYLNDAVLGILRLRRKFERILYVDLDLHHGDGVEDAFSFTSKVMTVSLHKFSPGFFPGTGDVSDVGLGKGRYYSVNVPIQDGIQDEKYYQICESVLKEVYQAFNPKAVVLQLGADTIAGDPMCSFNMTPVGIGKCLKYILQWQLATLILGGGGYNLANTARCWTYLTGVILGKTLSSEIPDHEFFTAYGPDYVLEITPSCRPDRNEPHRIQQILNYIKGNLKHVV
How it was run: as §1

[4] = test system: NCI-H1417 cells; test: In vitro cell inhibition assay - H1417 cell proliferation (CellTiter-Glo); format: cell-based
How it was run: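 Cells exposed to 8 compound concentrations (5-fold dilutions) in BEGM with 10% FBS for 7 days at 37° C., 5% CO2. Viable cells measured by CellTiter-Glo luminescence; inhibition versus no-inhibitor and no-cell controls, IC50 fitted.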

[5] = test system: NCI-H69 cells; test: In vitro cell inhibition assay - NCI-H69 cell proliferation (CellTiter-Glo); format: cell-based
How it was run: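 Cells seeded at 1×10^3 per well and incubated overnight at 37° C., 5% CO2, then treated with 8-point 5-fold compound dilutions in RPMI-640 with 20% FBS for 7 days. Viable cells measured by CellTiter-Glo luminescence; IC50 fitted from inhibition relative to no-inhibitor and no-cell controls.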

[6] = test system: DU145 cells; test: In vitro cell inhibition assay - DU145 cell proliferation (CellTiter-Glo); format: cell-based
Experimental: 5. In Vitro Cell Inhibition Assay—DU145 Cell Proliferation
The inhibitory effect of the compounds on cell proliferation was assessed by detecting the number of viable cells using the CellTiter-Glo® reagent. DU145 cells in the logarithmic growth phase were collected and inoculated into transparent bottom 96-well plates at a density 1×10^3 cells per well with 100 μL medium, and incubated at 37° C., 5% CO2 overnight. The compounds were sequentially diluted in a 5-fold concentration gradient with DMSO to obtain 8 different concentrations. These were then diluted with RPMI-640 (containing 10% FBS) cell culture medium to obtain the compound working solution (2×), which was added to the cell supernatant at 100 μL per well. The incubation continued for 6 days at 37° C., 5% CO2. The plate was then removed and equilibrated at room temperature (25° C.) along with the CellTiter-Glo® mixing reagent for 10-30 minutes. After centrifugation, 120 μL of the culture medium was carefully aspirated from each well, and 60 μL of CellTiter-Glo® reagent was added. The cells were thoroughly mixed with the CellTiter-Glo® mixing reagent using a microplate shaker for 2 min. and then incubated at room temperature for 10 min. The 96-well plate was subsequently placed on a multifunctional microplate reader to record the Luminescence values (RLU).
The inhibition rate was calculated using the following formula: […]
Note: ‘Negative’ refers to the group without inhibitors; ‘Blank’ refers to the group without cells.
The IC50 value was determined by fitting the inhibition rate by GraphPad Prism software.

[7] = Homo sapiens, NCI-H1417, H1417 small cell lung cancer cell proliferation
[8] = Homo sapiens, NCI-H69, H69 small cell lung cancer cell proliferation
[9] = Homo sapiens, DU-145, Du145 prostate cancer cell proliferation
[10] = H1417 small cell lung cancer cell proliferation
[11] = H69 small cell lung cancer cell proliferation
[12] = Du145 prostate cancer cell proliferation

SMILES: COc1ccc(-c2cnc(N3CCC(NCC4CCN(c5ccc(C(=O)NO)cc5)CC4)CC3)c(C#N)c2-c2ccc(C#N)c(F)c2)cc1O [Example 121, 4-(4-((1-(3-Cyano-4-(4-cyano-3-fluorophenyl)-5-(3-hydroxy-4-methoxyphenyl)pyridin-2-yl)piperidin-4-yl)amino)methyl) piperidin-1-yl)-N-hydroxybenzamide formate]
- IC50 [1]: 0.35 nM
- IC50 [2]: 404 nM
- IC50 [3]: 17.2 nM
- IC50 [4, 7]: 15.6 nM
- IC50 [5, 8]: 127 nM
- IC50 [6, 9]: 2220 nM

SMILES: COc1ccc(-c2cnc(N3CCC(NCc4ccc(/C=C/C(=O)NO)cc4)CC3)nc2-c2ccc(C#N)c(F)c2)cc1O [Example 71, (E)-3-(4-(((1-(4-(4-cyano-3-fluorophenyl)-5-(3-hydroxy-4-methoxyphenyl)pyrimidin-2-yl)piperidin-4-yl)amino)methyl)-N-hydroxyacrylamide formate]
- IC50 [1]: 4.61 nM
- IC50 [2]: 51.8 nM
- IC50 [3]: 125 nM
- IC50 [4, 10]: 42.3 nM
- IC50 [5, 11]: 99 nM
- IC50 [6, 12]: 431 nM

SMILES: COc1ccc(-c2cnc(N3CCC(NCc4ccc(/C=C/C(=O)NO)cc4OC)CC3)c(C#N)c2-c2ccc(C#N)c(F)c2)cc1O [Example 132, (E)-3-(4-(((1-(3-Cyano-4-(4-cyano-3-fluorophenyl)-5-(3-hydroxy-4-methoxyphenyl)pyridin-2-yl)piperidin-4-yl)amino)methyl)-3-methoxyphenyl)-N-hydroxyacrylamide formate]
- IC50 [1]: 10.8 nM
- IC50 [2]: 3.86 nM
- IC50 [3]: 171 nM
- IC50 [4, 7]: 13.2 nM
- IC50 [5, 8]: 103 nM
- IC50 [6, 9]: 235 nM

SMILES: COc1ccc(-c2cnc(N3CCC(NCc4cnc(CCC(=O)NO)nc4)CC3)c(C#N)c2-c2ccc(C#N)c(F)c2)cc1O [Example 152, 3-(5-((1-(3-Cyano-4-(4-cyano-3-fluorophenyl)-5-(3-hydroxy-4-methoxyphenyl)pyridin-2-yl)piperidin-4-yl)amino)methyl) pyrimidin-2-yl)-N-hydroxypropanamide hydrochloride]
- IC50 [1]: 1.15 nM
- IC50 [2]: 2.57 nM
- IC50 [3]: 131 nM
- IC50 [4, 7]: 4.91 nM
- IC50 [5, 8]: 208 nM
- IC50 [6, 9]: 223 nM

SMILES: COc1cc(-c2cnc(N3CCC(N(C)Cc4ccc(/C=C/C(=O)NO)cc4)CC3)c(C#N)c2-c2ccc(C#N)c(F)c2)ccc1O [Example 99, (E)-3-(4-(((1-(3-Cyano-4-(4-cyano-3-fluorophenyl)-5-(4-hydroxy-3-methoxyphenyl)pyridin-2-yl)piperidin-4-yl)(methyl)amino)methyl)phenyl)-N-hydroxyacrylamide formate]
- IC50 [1]: 9.5 nM
- IC50 [2]: 50.9 nM
- IC50 [3]: 120 nM
- IC50 [4, 7]: 11.8 nM
- IC50 [5, 8]: 97.3 nM
- IC50 [6, 9]: 122 nM

SMILES: COc1cc(-c2cnc(N3CCC(NCc4ccc(/C=C/C(=O)NO)cc4)CC3)c(C#N)c2-c2ccc(C#N)c(F)c2)ccc1O [Example 100, (E)-3-(4-((1-(3-Cyano-4-(4-cyano-3-fluorophenyl)-5-(4-hydroxy-3-methoxyphenyl)pyridin-2-yl)piperidin-4-yl)amino)methyl) phenyl)-N-hydroxyacrylamide hydrochloride]
- IC50 [1]: 49.5 nM
- IC50 [2]: 35.5 nM
- IC50 [3]: 36 nM
- IC50 [4, 7]: 118 nM
- IC50 [5, 8]: 104 nM
- IC50 [6, 9]: 313 nM

SMILES: COc1ccc(-c2cnc(N3CCC(N)(c4ccc(/C=C/C(=O)NO)cc4)CC3)c(C#N)c2-c2ccc(C#N)c(F)c2)cc1O [Example 85, (E)-3-(4-(4-amino-1-(3-cyano-4-(4-cyano-3-fluorophenyl)-5-(3-hydroxy-4-methoxyphenyl)pyridin-2-yl))piperidin-4-yl)phenyl)-N-hydroxyacrylamide formate]
- IC50 [1]: 209 nM
- IC50 [2]: 110 nM
- IC50 [3]: 542 nM
- IC50 [4, 10]: 256 nM
- IC50 [5, 11]: 407 nM
- IC50 [6, 12]: 1550 nM

SMILES: COc1ccc(-c2cnc(N3CCC(Nc4ncc(C(=O)NO)cn4)CC3)c(C#N)c2-c2ccc(C#N)c(F)c2)cc1O [Example 83, 2-((1-(3-Cyano-4-(4-cyano-3-fluorophenyl)-5-(3-hydroxy-4-methoxyphenyl)pyridin-2-yl)piperidin-4-yl)amino)-N-hydroxypyrimidine-5-carboxamide formate]
- IC50 [1]: 8.51 nM
- IC50 [2]: 438 nM
- IC50 [3]: 374 nM
- IC50 [4, 7]: 76.8 nM
- IC50 [5, 8]: 1140 nM
- IC50 [6, 9]: 2820 nM

SMILES: COc1ccc(-c2cnc(N3CCC(Nc4cccc(/C=C/C(=O)NO)c4)CC3)c(C#N)c2-c2ccc(C#N)c(F)c2)cc1O [Example 81, (E)-3-(3-((1-(3-cyano-4-(4-cyano-3-fluorophenyl)-5-(3-hydroxy-4-methoxyphenyl)pyridin-2-yl)piperidin-4-yl)amino)phenyl)-N-hydroxyacrylamide formate]
- IC50 [1]: 140 nM
- IC50 [2]: 1220 nM
- IC50 [3]: 695 nM
- IC50 [4, 7]: 73.9 nM
- IC50 [5, 8]: 516 nM
- IC50 [6, 9]: 776 nM

SMILES: COc1cc(-c2ccc(CN3CC[C@H](NCc4ccc(/C=C/C(=O)NO)cc4)C3)cc2-c2ccc(C#N)c(F)c2)ccc1O [Example 75, (S,E)-3-(4-(((1-((4″-Cyano-3″-fluoro-4-hydroxy-3-methoxy-[1,1:2,1″-terphenyl]-4′-yl)methyl)pyrrolidin-3-yl)amino)methyl)phenyl)-N-hydroxyacrylamide formate]
- IC50 [1]: 129 nM
- IC50 [2]: 76.6 nM
- IC50 [3]: 212 nM
- IC50 [4, 7]: 473 nM
- IC50 [5, 8]: 403 nM
- IC50 [6, 9]: 677 nM

SMILES: COc1ccc(-c2cnc(N3CCC(NCc4ccc(OCC(=O)NO)c(OC)c4)CC3)c(C#N)c2-c2ccc(C#N)c(F)c2)cc1O [Example 128, 2-(4-((1-(3-Cyano-4-(4-cyano-3-fluorophenyl)-5-(3-hydroxy-4-methoxyphenyl)pyridin-2-yl)piperidin-4-yl)amino)methyl)-2-methoxyphenoxy)-N-hydroxyacetamide formate]
- IC50 [1]: 0.39 nM
- IC50 [2]: 5 nM
- IC50 [3]: 223 nM
- IC50 [4, 7]: 2.01 nM
- IC50 [5, 8]: 130 nM
- IC50 [6, 9]: 239 nM

SMILES: COc1ccc(-c2c(-c3ccc(C#N)c(F)c3)nc(N3CCC(NCc4ccc(/C=C/C(=O)NO)cc4)CC3)n3ccnc23)cc1O [Example 70, (E)-3-(4-(((1-(7-(4-Cyano-3-fluorophenyl)-8-(3-hydroxy-4-methoxyphenyl)imidazo[1,2-c]pyrimidin-5-yl)piperidin-4-yl)amino)methyl)phenyl)-N-hydroxyacrylamide formate]
- IC50 [1]: 1.18 nM
- IC50 [2]: 76.6 nM
- IC50 [3]: 26.5 nM
- IC50 [4, 7]: 1.44 nM
- IC50 [5, 8]: 214 nM
- IC50 [6, 9]: 262 nM

SMILES: COc1ccc(-c2cnc(N3CCC(NCCc4ccc(CC(=O)NO)cc4)CC3)c(C#N)c2-c2ccc(C#N)c(F)c2)cc1O [Example 120, 2-(4-(2-((1-(3-Cyano-4-(4-cyano-3-fluorophenyl)-5-(3-hydroxy-4-methoxyphenyl)pyridin-2-yl)piperidin-4-yl)amino)ethyl)phenyl)-N-hydroxyacetamide formate]
- IC50 [1]: 0.33 nM
- IC50 [2]: 1310 nM
- IC50 [3]: 1950 nM
- IC50 [4, 7]: 11.1 nM
- IC50 [5, 8]: 938 nM
- IC50 [6, 9]: 3770 nM

SMILES: COc1ccc(-c2cnc(N3CCC4(CC3)CN(Cc3ccc(/C=C/C(=O)NO)cc3)C4)c(C#N)c2-c2ccc(C#N)c(F)c2)cc1O [Example 138, (E)-3-(4-(((7-(3-Cyano-4-(4-cyano-3-fluorophenyl)-5-(3-hydroxy-4-methoxyphenyl)pyridin-2-yl)-2,7-diazaspiro[3.5]nonan-2-yl)methyl)phenyl)-N-hydroxyacrylamide formate]
- IC50 [1]: 21.4 nM
- IC50 [2]: 61 nM
- IC50 [3]: 401 nM
- IC50 [4, 7]: 30.7 nM
- IC50 [5, 8]: 91.6 nM
- IC50 [6, 9]: 372 nM

SMILES: COc1ccc(-c2cnc(N3CCC(NCc4ccc(C#CC(=O)NO)cc4)CC3)c(C#N)c2-c2ccc(C#N)c(F)c2)cc1O [Example 109, 3-(4-(1-(3-Cyano-4-(4-cyano-3-fluorophenyl)-5-(3-hydroxy-4-methoxyphenyl)pyridin-2-yl)piperidin-4-yl)amino)methyl) phenyl)-N-hydroxypropiolamide formate]
- IC50 [1]: 4.19 nM
- IC50 [2]: 657 nM
- IC50 [3]: 391 nM
- IC50 [4, 7]: 2.76 nM
- IC50 [5, 8]: 411 nM
- IC50 [6, 9]: 3820 nM
